From patent US4933361A, “Derivatives of bicyclic aminoacids agents containing these compounds and their use” (Hoechst Aktiengesellschaft, priority 1981, dated 1990) come the findings set out here.

Counter-ions that a name gives are not always drawn.

For the first assay, the system named is pressor reaction induced by 310 ng of angiotensin I. Put plainly: Intraduodenal administration to the anesthetized rat, 50% inhibition of the pressor reaction induced by angiotensin I. The assay is classed as in vivo. The following applies: 0.5 h, Table I, H atoms on C-3a and C-(6+n)a cis, 310 ng angiotensin I, 30 min after administration. An excerpt:
After administration in the dose . . . =ED50 :
Regarding `C[C@H](N[C@@H](CCc1ccccc1)C(=O)O)C(=O)N1[C@@H]2CCC[C@@H]2C[C@H]1C(=O)O` [Example 21, N-(1S-Carboxy-3-phenylpropyl)-S-alanyl-2S,3aR,6aR-octahydrocyclopenta[b]pyrrole-2-carboxylic acid], the ED50 worked out at 0.7 mg/kg. For the compound `C[C@H](N[C@@H](CCc1ccccc1)C(=O)O)C(=O)N1[C@@H]2CCCCC[C@@H]2C[C@H]1C(=O)O` [Example 22, N-(1S-Carboxy-3-phenylpropyl)-S-alanyl-2S,3aR,8aR-decahydrocyclohepta[b]pyrrole-2-carboxylic acid], the ED50 stood at 0.84 mg/kg.

Regarding `CCOC(=O)[C@H](CCc1ccccc1)N[C@@H](C)C(=O)N1[C@@H]2CCC[C@@H]2C[C@H]1C(=O)O` [Example 18, N-(1S-Carboethoxy-3-phenylpropyl)-S-alanyl-2S,3aR,6aR-octahydrocyclopenta[b]pyrrole-2-carboxylic acid hydrochloride], the 50% effect level (ED50) was put at a dose of 0.04 mg/kg.

Compound `CCOC(=O)[C@H](CCc1ccccc1)N[C@@H](C)C(=O)N1[C@@H]2CCCCC[C@@H]2C[C@H]1C(=O)O` [Example 19, N-(1S-Carboethoxy-3-phenylpropyl)-S-alanyl-2S,3aR,8aR-decahydrocyclohepta[b]pyrrole-2-carboxylic acid hydrochloride] returned an ED50 of 0.23 mg/kg. `CCOC(=O)[C@H](CCc1ccccc1)N[C@@H](C)C(=O)N1[C@@H]2CCCC[C@@H]2C[C@H]1C(=O)O` [Example 17, N-(1S-Carboethoxy-3-phenylpropyl)-S-alanyl-2S,3aR,7aR-octahydroindole-2-carboxylic acid hydrochloride] had a median effective dose (ED50) of 0.05 mg/kg. The compound `C[C@H](N[C@@H](CCc1ccccc1)C(=O)O)C(=O)N1[C@@H]2CCCC[C@@H]2C[C@H]1C(=O)O` [Example 20, N-(1S-Carboxy-3-phenylpropyl)-S-alanyl-2S,3aR,7aR-octahydroindole-2-carboxylic acid] showed an ED50 of 0.6 mg/kg.

Still in this assay, the particulars now being: 0.5 h, Table II, H atoms on C-3a and C-(6+n)a trans, X = phenyl, R1 = methyl, 310 ng angiotensin I, 30 min after administration.
As for `CCOC(=O)[C@H](CC(=O)c1ccccc1)N[C@@H](C)C(=O)N1[C@H](C(=O)O)C[C@H]2CCCC[C@@H]21` [Example 67, N-(1S-Carboethoxy-3-keto-3-phenylpropyl)-S-alanyl-2S,3aR,7aS-octahydroindole-2-carboxylic acid], the ED50 was 0.18 mg/kg. Still for that read-out and setting: next, `C[C@H](N[C@@H](CCc1ccccc1)C(=O)O)C(=O)N1[C@H](C(=O)O)C[C@H]2CCC[C@@H]21` [Example 77, N-(1S-Carboxy-3-phenylpropyl)-S-alanyl-2S,3aR,6aS-octahydrocyclopenta[b]pyrrole-2-carboxylic acid]: 0.7 mg/kg. Regarding `CCOC(=O)[C@H](CCc1ccccc1)N[C@@H](C)C(=O)N1[C@@H]2CCCC[C@H]2C[C@H]1C(=O)O` [Example 43, N-(1S-Carboethoxy-3-phenylpropyl)-S-alanyl-2S,3aS,7aR-octahydroindole-2-carboxylic acid], it took a dose of 0.065 mg/kg to reach the 50% effect level (ED50). `CCOC(=O)[C@H](CCc1ccccc1)N[C@@H](C)C(=O)N1[C@H](C(=O)O)C[C@H]2CCCC[C@@H]21` [Example 42, N-(1S-Carboethoxy-3-phenylpropyl)-S-alanyl-2S,3aR,7aS-octahydroindole-2-carboxylic acid] returned an ED50 of 0.055 mg/kg. `CCOC(=O)[C@H](CCc1ccccc1)N[C@@H](C)C(=O)N1[C@H](C(=O)O)C[C@H]2CCCCC[C@@H]21` [Example 46, N-(1S-Carboethoxy-3-phenylpropyl)-S-alanyl-2S,3aR,8aS-decahydrocyclohepta[b]pyrrole-2-carboxylic acid] showed an ED50 of 0.11 mg/kg. Take `C[C@H](N[C@@H](CCc1ccccc1)C(=O)O)C(=O)N1[C@H](C(=O)O)C[C@H]2CCCCC[C@@H]21` [Example 79, N-(1S-Carboxy-3-phenylpropyl)-S-alanyl-2S,3aR,6aS-decahydrocyclohepta[b]pyrrole-2-carboxylic acid]: the 50% effect level (ED50) was put at a dose of 1.08 mg/kg. The compound `C[C@H](N[C@@H](CCc1ccccc1)C(=O)O)C(=O)N1[C@H](C(=O)O)C[C@H]2CCCC[C@@H]21` [Example 75, N-(1S-Carboxy-3-phenylpropyl)-S-alanyl-2S,3aR,7aS-octahydroindole-2-carboxylic acid] yielded an ED50 of 0.8 mg/kg. The same measure, in the same setting: next, `CCOC(=O)[C@H](CCc1ccccc1)N[C@@H](C)C(=O)N1[C@H](C(=O)O)C[C@H]2CCC[C@@H]21` [Example 44, N-(1S-Carboethoxy-3-phenylpropyl)-S-alanyl-2S,3aR,6aS-octahydrocyclopenta[b]pyrrole-2-carboxylic acid]: 0.04 mg/kg; `C[C@H](N[C@@H](CCc1ccccc1)C(=O)O)C(=O)N1[C@@H]2CCCC[C@H]2C[C@H]1C(=O)O` [Example 76, N-(1S-Carboxy-3-phenylpropyl)-S-alanyl-2S,3aS,7aR-octahydroindole-2-carboxylic acid]: 0.85 mg/kg.

The assay is the same for the next values; noted with them: Table I, H atoms on C-3a and C-(6+n)a cis, 310 ng angiotensin I, 30 min after administration.
For `CCOC(=O)[C@H](CC(=O)c1ccccc1)N[C@@H](C)C(=O)N1C(C(=O)O)CC2CCCCC21.O=C(O)C(F)(F)F` (stereo partly drawn) [Example 29, N-(1S-Carboethoxy-3-phenyl-3-oxopropyl)-S-alanyl-2β,3aβ,7aβ-octahydroindole-2-carboxylic acid trifluoroacetate], the “ED50 (50% inhibition of the pressor reaction induced by angiotensin I)” value was determined as 0.39 mg/kg.

A word on the ED50: it is the midpoint of the dose-response relation. A high value points to weaker potency.
